Laboratory results published in patent publication US9670214B2, “Small molecule myristate inhibitors of Bcr-abl and methods of use” (DANA-FARBER CANCER INSTITUTE, INC., priority 2007, dated 2017).
pIC50: −log10 of the molar value.

Experiments:
[1] = tested on: Ba/F3 cells (IL-3 dependent murine pro-B cell line); test: Proliferation assay (MTT), parental Ba/F3 cells; format: cell-based; details: Mus musculus, 48 h, drug concentrations 0.005-10 μM, read-out: BaF3
Experimental: Interleukin-3 (IL-3) dependent murine pro-B cell line, Ba/F3, and murine myeloid precursor cell line, 32D, were maintained in RPMI-1640 medium supplemented with L-Glutamine, 10% FBS and 10 U/ml recombinant murine IL-3 (Roche). Mo7e human megakarioblastic cell line was grown in RPMI-1640 medium supplemented with L-Glutamine, 20% FBS and 5 ng/ml recombinant human granulocyte macrophage cell stimulating factor (GM-CSF) (R&D Systems) or 200 ng/ml stem cell factor (SCF) (Biosource).
(§1) Cells (0.3-0.6×10^6/ml) were plated in duplicate or triplicate in 96-well plates containing increasing drug concentrations (0.005-10 μM). After incubation at 37° C. in 5% CO2 for 48 h, the effect of the compounds on cell viability was determined by MTT (Promega) colorimetric dye reduction method. Inhibition of cell proliferation was calculated as a percentage of growth of DMSO treated cells, and IC50 values were determined with Microsoft Excel XLfit3.

[2] = target: Bcr-abl T315I (Ba/F3.p210^T315I cells) (Homo sapiens, UniProt P00519, T315I, cells depend on it); test: Proliferation assay (MTT), T315I mutant Bcr-abl expressing Ba/F3 cells; format: cell-based, murine; details: 48 h, drug concentrations 0.005-10 μM
Source text: (§2) Wild type Bcr-abl expressing 32D (32D.p210) and Ba/F3 (Ba/F3.p210) cells, and mutant Bcr-abl expressing cell lines Ba/F3.p210^G250E, Ba/F3.p210^E255V, Ba/F3.p210^T315I, Ba/F3.p210^F317L and Ba/F3.p210^M351T, as well as Ba/F3 cells transformed with Flt-3-ITD kinase. Additional assays included Ba/F3 cells expressing the fusion protein kinases TEL-PDGFRβ, TEL-JAK1, NPM-ALK, TEL-cKit, Tel-Bmx, Tel-FGR3, Tel-Lck and Ba/F3.TPR-met cells. All the above cell lines were maintained in RPMI-1640 medium with L-Glutamine, 10% FBS and 1 mg/ml geneticin (Gibco).
as §1

[3] = target: Bcr-abl (Ba/F3.p210 cells) (Homo sapiens, UniProt P00519); test: Proliferation assay (MTT), wild type Bcr-abl expressing Ba/F3 cells; format: cell-based, murine; details: 48 h, drug concentrations 0.005-10 μM
Source text: as §2, §1

Row | SMILES | pIC50 [1] | pIC50 [2] | pIC50 [3]
1 | CNS(=O)(=O)c1ccc(-c2ncnc(Nc3ccc(OC(F)(F)F)cc3)c2C)cc1 | 5.60 | 5.67 | 
2 | NS(=O)(=O)c1ccc(-c2cc(Nc3ccc(OC(F)(F)F)cc3)ncn2)cc1 | < 5.00 | 5.98 | 
3 | Cc1c(Nc2ccc(OC(F)(F)F)cc2)ncnc1-c1ccc(CN)cc1 | < 5.00 | < 5.00 | 
4 | Cc1c(Nc2ccc(OC(F)(F)F)cc2)ncnc1-c1cnn(-c2ccccc2)c1C | 5.05 | 5.28 | 
5 | CC(=O)Nc1cccc(-c2ncnc(Nc3ccc(OC(F)(F)F)cc3)c2C)c1 | < 5.00 | < 5.00 | 
6 | N#CCc1cccc(-c2cc(Nc3ccc(OC(F)(F)F)cc3)ncn2)c1 | 5.05 | 5.47 | 
7 | CN(C)C1CCN(C(=O)c2cc3c(Nc4ccc(OC(F)(F)F)cc4)ncnc3s2)C1 (centres unmarked) | < 5.00 | < 5.00 | 
8 | COc1cccc2cc(-c3ncnc(Nc4ccc(OC(F)(F)F)cc4)c3C)ccc12 | < 5.00 | < 5.00 | 
9 | FC(F)(F)Oc1ccc(Nc2cc(-n3ccc4cccnc43)ncn2)cc1 | < 5.00 | < 5.00 | 
10 | FC(F)(F)Oc1ccc(Nc2cc(-c3cccc4sccc34)ncn2)cc1 | 5.51 | 5.43 | 
11 | CCNS(=O)(=O)c1ccc(-c2cc(Nc3ccc(OC(F)(F)F)cc3)ncn2)cc1 | < 5.00 | 5.73 | 
12 | Cc1nn(C)c(C)c1-c1cc(Nc2ccc(OC(F)(F)F)cc2)ncn1 [N-(4-(trifluoromethoxy)phenyl)-6-(1,3,5-trimethyl-1H-pyrazol-4-yl)pyrimidin-4-amine] | < 5.00 | < 5.00 | 
13 | FC(F)(F)Oc1ccc(Nc2cc(-c3cccc4c3oc3ccccc34)ncn2)cc1 | < 5.00 | 5.34 | 
14 | FC(F)(F)Oc1ccc(Nc2cc(-c3c[nH]c4ccccc34)ncn2)cc1 | < 5.00 | 5.03 | 
15 | NC(=O)C1CCCN(c2ncnc(Nc3ccc(OC(F)(F)F)cc3)c2Br)C1 (centres unmarked) | < 5.00 | < 5.00 | 
16 | O=S(=O)(c1ccc(-c2cc(Nc3ccc(OC(F)(F)F)cc3)ncn2)cc1)N1CCCCC1 | < 5.00 | 5.85 | 
17 | Cc1cc2c(Nc3ccc(OC(F)(F)F)cc3)ncnc2s1 | < 5.00 | < 5.00 | 
18 | O=C(c1cc2c(Nc3ccc(OC(F)(F)F)cc3)ncnc2s1)N1CCC(O)CC1 | < 5.00 | < 5.00 | 
19 | FC(F)(F)Oc1ccc(Nc2cc(-n3ccnc3NCCN3CCOCC3)ncn2)cc1 | < 5.00 | < 5.00 | 
20 | COC(=O)c1cc2c(Nc3ccc(OC(F)(F)F)cc3)ncnc2s1 | < 5.00 | < 5.00 | 
21 | CC(C)Cn1cc(-c2cc(Nc3ccc(OC(F)(F)F)cc3)ncn2)cn1 | < 5.00 | 5.81 | 
22 | O=S(=O)(NCCO)c1ccc(-c2cc(Nc3ccc(OC(F)(F)F)cc3)ncn2)cc1 | < 5.00 | 5.84 | 
23 | CS(=O)(=O)c1ccc(-c2cc(Nc3ccc(OC(F)(F)F)cc3)ncn2)cc1 | < 5.00 | 5.21 | 

Row | SMILES | pIC50 [1] | pIC50 [2] | pIC50 [3]
24 | FC(F)(F)Oc1ccc(Nc2cc(-c3cn[nH]c3)ncn2)cc1 | < 5.00 | ~6.34 | 
25 | FC(F)(F)Oc1ccc(Nc2cc(-c3ccc(-c4ccccc4)cc3)ncn2)cc1 | < 5.00 | 5.50 | 
26 | FC(F)(F)Oc1ccc(Nc2cc(-n3ccnc3Nc3ccc(OC(F)(F)F)cc3)ncn2)cc1 | < 5.00 | < 5.00 | 
27 | Cc1c(Nc2ccc(OC(F)(F)F)cc2)ncnc1-c1ccc(C(=O)NCCN2CCOCC2)cc1 | 5.42 | 6.09 | 
28 | FC(F)(F)Oc1ccc(Nc2cc(-c3ccc4[nH]ccc4c3)ncn2)cc1 | < 5.00 | 5.06 | 
29 | COc1ccc(C(=O)Nc2ccc(-c3cc(Nc4ccc(OC(F)(F)F)cc4)ncn3)cc2)cc1 | 5.04 | < 5.00 | 
30 | O=c1cc(-c2cc(Nc3ccc(OC(F)(F)F)cc3)ncn2)cc[nH]1 | < 5.00 | < 5.00 | 
31 | O=C(NC1CCN(Cc2ccccc2)C1)c1cc2c(Nc3ccc(OC(F)(F)F)cc3)ncnc2s1 (centres unmarked) | 6.03 | 6.21 | 
32 | Cc1c(Nc2ccc(OC(F)(F)F)cc2)ncnc1-c1ccc(-c2ccccc2)cc1 | < 5.00 | < 5.00 | 
33 | O=S(=O)(c1ccc(-c2cc(Nc3ccc(OC(F)(F)F)cc3)ncn2)cc1)N1CCOCC1 | < 5.00 | 5.58 | 
34 | Cc1ccc(S(=O)(=O)Nc2ccc(-c3ncnc(Nc4ccc(OC(F)(F)F)cc4)c3C)cc2)cc1 | < 5.00 | < 5.00 | 
35 | O=C(O)c1cc2c(Nc3ccc(OC(F)(F)F)cc3)ncnc2s1 | < 5.00 | < 5.00 | 
36 | FC(F)(F)Oc1ccc(Nc2cc(-c3cc(Nc4ccc(OC(F)(F)F)cc4)ncn3)ncn2)cc1 | < 5.00 | 5.15 | 
37 | FC(F)(F)Oc1ccc(Nc2cc(-c3cccc4[nH]ccc34)ncn2)cc1 | < 5.00 | 5.18 | 
38 | O=C(NCCO)c1cc2c(Nc3ccc(OC(F)(F)F)cc3)ncnc2s1 [N-(2-hydroxyethyl)-4-(4-(trifluoromethoxy)phenylamino)thieno[2,3-d]pyrimidine-6-carboxamide] | < 5.00 | < 5.00 | 
39 | CCN(CC)S(=O)(=O)c1ccc(-c2cc(Nc3ccc(OC(F)(F)F)cc3)ncn2)cc1 | 5.05 | 5.41 | 
40 | O=[N+]([O-])c1cccc(-c2cc(Nc3ccc(OC(F)(F)F)cc3)ncn2)c1 | < 5.00 | < 5.00 | 
41 | FC(F)(F)Oc1ccc(Nc2cc(-c3cnn(Cc4ccccc4)c3)ncn2)cc1 | < 5.00 | 5.89 | 
42 | FC(F)(F)Oc1ccc(Nc2ncnc(NCCN3CCOCC3)c2Br)cc1 | < 5.00 | < 5.00 | 
43 | Cc1c(Nc2ccc(OC(F)(F)F)cc2)ncnc1-c1cccc(C(=O)O)c1 | < 5.00 | < 5.00 | 
44 | Cc1nc(-c2cc(Nc3ccc(OC(F)(F)F)cc3)ncn2)cs1 | < 5.00 | < 5.00 | 
45 | Cc1ccc(NC(=O)c2ccccc2)cc1Nc1nccn1-c1cc(Nc2ccc(OC(F)(F)F)cc2)ncn1 | < 5.00 | < 5.00 | 
46 | O=Cc1cc(-c2cc(Nc3ccc(OC(F)(F)F)cc3)ncn2)ccc1F | 5.39 | 5.23 | 

Row | SMILES | pIC50 [1] | pIC50 [2] | pIC50 [3]
47 | O=C(c1cc2c(Nc3ccc(OC(F)(F)F)cc3)ncnc2s1)N1CCN(c2cccc(C(F)(F)F)c2)CC1 | 5.34 | 5.72 | 
48 | Cc1ccc(S(=O)(=O)Nc2ccc(-c3cc(Nc4ccc(OC(F)(F)F)cc4)ncn3)cc2)cc1 | < 5.00 | < 5.00 | 
49 | COc1cccc2cc(-c3cc(Nc4ccc(OC(F)(F)F)cc4)ncn3)ccc12 | < 5.00 | < 5.00 | 
50 | Cc1c(Nc2ccc(OC(F)(F)F)cc2)ncnc1-c1ccc(C(=O)NCCO)cc1 | < 5.00 | 5.33 | 
51 | CN1CCN(C(=O)c2cc3c(Nc4ccc(OC(F)(F)F)cc4)ncnc3s2)CC1 | 5.57 | 5.90 | 
52 | Cc1c(Nc2ccc(OC(F)(F)F)cc2)ncnc1-c1cccc2[nH]ccc12 | < 5.00 | < 5.00 | 
53 | CS(=O)(=O)Nc1ccc(-c2cc(Nc3ccc(OC(F)(F)F)cc3)ncn2)cc1 | 5.66 | 6.22 | 
54 | O=Cc1cc(-c2cc(Nc3ccc(OC(F)(F)F)cc3)ncn2)co1 | < 5.00 | 5.42 | 
55 | FC(F)(F)Oc1ccc(Nc2cc(-c3cnn(Cc4ccncc4)c3)ncn2)cc1 | 5.14 | 5.40 | 
56 | O=C(c1cc2c(Nc3ccc(OC(F)(F)F)cc3)ncnc2s1)N1CCC[C@H]1CO | 5.44 | 5.92 | 
57 | Nc1cc(C2CC2)n(-c2cc(Nc3ccc(OC(F)(F)F)cc3)ncn2)n1 | < 5.00 | < 5.00 | 
58 | CN1CCN(c2cc(-c3cc(Nc4ccc(OC(F)(F)F)cc4)ncn3)ccn2)CC1 | 6.15 | 6.41 | 
59 | FC(F)(F)Oc1ccc(Nc2ncnc3sccc23)cc1 | < 5.00 | < 5.00 | 
60 | CCNC(=O)c1cc2c(Nc3ccc(OC(F)(F)F)cc3)ncnc2s1 | < 5.00 | < 5.00 | 
61 | CCS(=O)(=O)n1cc(-c2cc(Nc3ccc(OC(F)(F)F)cc3)ncn2)cn1 | < 5.00 | 5.37 | 
62 | CCCC(C)S(=O)(=O)Nc1ccc(-c2cc(Nc3ccc(OC(F)(F)F)cc3)ncn2)cc1 (centres unmarked) | 5.42 | 5.78 | 
63 | Cc1ccc(NC(=O)c2ccc(CN3CCOCC3)c(C(F)(F)F)c2)cc1Nc1nccn1-c1cc(Nc2ccc(OC(F)(F)F)cc2)ncn1 | < 5.00 | 5.18 | 
64 | Cc1c(Nc2ccc(OC(F)(F)F)cc2)ncnc1-c1cccc(C(N)=O)c1 | < 5.00 | < 5.00 | 
65 | Cn1ncc2c(Nc3ccc(OC(F)(F)F)cc3)ncnc21 | < 5.00 |  | < 5.00
66 | CN(C)C1CCN(Cc2cc3c(Nc4ccc(OC(F)(F)F)cc4)ncnc3s2)C1 (centres unmarked) | < 5.00 | < 5.00 | 
67 | O=C(NCCN1CCOCC1)c1cc2c(Nc3ccc(OC(F)(F)F)cc3)ncnc2s1 [drawing 343] | < 5.00 | < 5.00 | 
